Patent publication US7960569B2, “Indole antagonists of P2Y1 receptor useful in the treatment of thrombotic conditions” (Bristol-Myers Squibb Company, priority 2006, dated 2011)
Structures can show the parent of a compound that is named as a salt.

Target: T1, cloned human P2Y1 receptors (Homo sapiens, UniProt P47900)
T1 construct: expressed in transfected cells
Assay: Binding Assay A: membrane binding assay, inhibition of [33P] 2MeS-ADP binding (WGA FlashPlates)
Excerpt: A membrane binding assay was used to identify inhibitors of [^33P] […] The cDNA clone for human P2Y1 was obtained from Incyte Pharmaceuticals and its sequence confirmed by established techniques (for a compendium of techniques used see Ausubel, F. et al. Current Protocols in Molecular Biology 1995 John Wiley and Sons, NY, N.Y.). The essential coding sequences were subcloned into pcDNA 3.1 (Invitrogen) to produce a P2Y1 expression construct. This construct was then transfected into the human embryonic kidney cell line HEK-293 and stable transfectants selected in Genetcin® (G418 sulfate; Life Technologies). […] Membranes were prepared by growing HEK293 #49 in 150 mm dishes in DMEM/10% FBS in the presence of 1 mg/ml G418 until cells were 80-90% confluent. Plates were then washed with cold (4° C.) D-PBS twice and cells harvested by scraping into 10 mL D-PBS. Cells were pelleted by centrifugation (1,000 g, 10 min, 4° C.) and the resulting pellet resuspended in Lysis Buffer (10 mM Tris (7.4), 5 mM MgCl2 containing Complete® protease inhibitor cocktail (Roche Cat #1873580) as recommended by the manufacturer). The suspension was then homogenized in a Dounce homogenizer (10-15 strokes; B pestle, on ice) and the homogenate spun at 1,000 g, 4° C., 5 min to pellet large debris. The supernatant was centrifuged at 150,000 g, 4° C., for 1 hour and the resulting membrane pellet resuspended in 0.5-1 mL of Buffer B (15 mM HEPES (7.4), 145 mM NaCl, 0.1 mM MgCl2, 5 mM EDTA, 5 mM KCl) and stored at −70° C. until used.
Binding reactions were performed in WGA FlashPlates (PerkinElmer Life Sciences, Cat # SMP105A) in a volume of 200 μL containing ˜45 fmol of P2Y1 receptor (5 μg of total protein), 0.5 nM [^33P] […] Reactions were allowed to proceed to completion at room temperature for 1 hour and then the aqueous solution aspirated. Plates were sealed and the residual [^33P] bound to the plate determined by scintillation counting.

T1 sequence (P47900 whole entry): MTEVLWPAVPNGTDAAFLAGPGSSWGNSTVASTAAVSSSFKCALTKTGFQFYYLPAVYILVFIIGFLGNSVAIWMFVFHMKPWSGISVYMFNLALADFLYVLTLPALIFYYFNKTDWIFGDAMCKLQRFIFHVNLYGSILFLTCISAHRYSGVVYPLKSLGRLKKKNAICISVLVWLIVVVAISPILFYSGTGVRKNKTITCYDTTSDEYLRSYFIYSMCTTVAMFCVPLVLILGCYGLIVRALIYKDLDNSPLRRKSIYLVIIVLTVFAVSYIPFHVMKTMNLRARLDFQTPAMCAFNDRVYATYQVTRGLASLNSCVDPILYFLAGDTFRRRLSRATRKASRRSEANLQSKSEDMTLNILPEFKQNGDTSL

Structure (SMILES)	Ki
CC(C)c1ccccc1-n1cc(C(=O)Nc2ccc(N3CCOCC3)cc2)c2ccccc21 [Example 53, 1-(2-isopropylphenyl)-N-(4-morpholinophenyl)-1H-indole-3-carboxamide 2,2,2-trifluoroacetic acid salt]	1210 nM
CC(C)c1ccccc1-c1cn(C(=O)Nc2ccccc2)c2ccccc12 [Example 1, 3-(2-isopropylphenyl)-N-phenyl-1H-indole-1-carboxamide]	75 nM
CC(C)c1ccccc1-c1cn(C(=O)Nc2ccc(I)cc2)c2ccccc12 [Example 40, N-(4-iodophenyl)-3-(2-isopropylphenyl)-1H-indole-1-carboxamide]	96 nM
CN(C)Cc1ccccc1-c1cn(C(=O)Nc2ccc(OC(F)(F)F)cc2)c2ccccc12 [Example 33, 3-(2-((dimethylamino)methyl)phenyl)-N-(4-(trifluoromethoxy)phenyl)-1H-indole-1-carboxamide bis(2,2,2-trifluoroacetic acid) salt]	1300 nM
CC(C)c1ccccc1-c1cn(C(=O)Nc2ccc(N(C)C)cc2)c2ccccc12 [Example 12, N-(4-(dimethylamino)phenyl)-3-(2-isopropylphenyl)-1H-indole-1-carboxamide 2,2,2-trifluoroacetic acid salt]	117 nM
CC(C)c1ccccc1-c1cn(C(=O)Nc2ccc(-c3ccccc3)cc2)c2ccccc12 [Example 27, N-(biphenyl-4-yl)-3-(2-isopropylphenyl)-1H-indole-1-carboxamide]	144 nM
